The subject of assay [1] is A549. Briefly: cells. Conditions: Homo sapiens, A549, 48 h.
In assay [2] the test system is HepG2. Description: cells. To be noted: Homo sapiens, HepG2, 48 h.
The target of assay [3] is Epidermal growth factor receptor (Homo sapiens, UniProt P00533). Description: Inhibition of autophosphorylation of EGFR cytoplasmic domain (amino acids 645 to 1186) (unknown origin) expressed in Sf9 cells after 1 hr by time-resolved fluorometry.
The target of assay [4] is Receptor tyrosine-protein kinase erbB-2 (Homo sapiens) (UniProt P04626). Description: Inhibition of autophosphorylation of human HER2 cytoplasmic domain (amino acids 676 to 1245) (unknown origin) expressed in Sf9 cells after 1 hr by time-resolved fluorometry.
Chain of Receptor tyrosine-protein kinase erbB-2 (Homo sapiens) (P04626 whole entry, looked up, the tested form may be a part): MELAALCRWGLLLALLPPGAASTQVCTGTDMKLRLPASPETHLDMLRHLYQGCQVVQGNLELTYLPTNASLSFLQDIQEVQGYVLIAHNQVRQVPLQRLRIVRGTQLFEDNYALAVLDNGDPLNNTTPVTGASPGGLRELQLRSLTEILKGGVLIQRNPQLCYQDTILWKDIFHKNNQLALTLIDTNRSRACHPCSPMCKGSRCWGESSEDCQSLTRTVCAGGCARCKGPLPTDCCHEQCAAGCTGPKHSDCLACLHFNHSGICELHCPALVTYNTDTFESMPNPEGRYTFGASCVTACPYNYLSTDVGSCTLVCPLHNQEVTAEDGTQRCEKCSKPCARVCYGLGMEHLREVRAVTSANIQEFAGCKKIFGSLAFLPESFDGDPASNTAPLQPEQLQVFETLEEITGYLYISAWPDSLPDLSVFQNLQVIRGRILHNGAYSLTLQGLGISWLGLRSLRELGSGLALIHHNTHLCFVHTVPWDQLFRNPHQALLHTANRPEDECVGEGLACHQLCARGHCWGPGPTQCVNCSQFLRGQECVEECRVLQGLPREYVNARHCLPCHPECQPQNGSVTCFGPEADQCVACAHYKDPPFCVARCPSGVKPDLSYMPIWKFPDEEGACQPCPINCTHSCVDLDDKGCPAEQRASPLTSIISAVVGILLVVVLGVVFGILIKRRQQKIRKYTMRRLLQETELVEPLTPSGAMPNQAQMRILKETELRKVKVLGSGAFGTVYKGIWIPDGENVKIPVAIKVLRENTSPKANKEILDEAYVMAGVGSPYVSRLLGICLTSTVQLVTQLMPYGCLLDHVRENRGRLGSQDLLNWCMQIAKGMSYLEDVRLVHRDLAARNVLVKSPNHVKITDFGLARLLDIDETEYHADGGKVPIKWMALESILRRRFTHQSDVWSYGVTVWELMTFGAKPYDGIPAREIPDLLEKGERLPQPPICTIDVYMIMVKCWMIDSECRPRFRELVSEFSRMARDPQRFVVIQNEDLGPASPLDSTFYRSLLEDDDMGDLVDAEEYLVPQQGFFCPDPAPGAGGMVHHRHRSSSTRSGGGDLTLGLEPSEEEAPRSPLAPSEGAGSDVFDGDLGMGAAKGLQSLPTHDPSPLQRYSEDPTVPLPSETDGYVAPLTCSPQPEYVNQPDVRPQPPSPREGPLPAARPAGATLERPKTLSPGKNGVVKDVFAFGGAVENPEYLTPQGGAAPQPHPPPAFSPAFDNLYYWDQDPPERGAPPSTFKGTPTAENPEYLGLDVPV

Chain of Epidermal growth factor receptor (P00533 whole entry, the tested form may be a part): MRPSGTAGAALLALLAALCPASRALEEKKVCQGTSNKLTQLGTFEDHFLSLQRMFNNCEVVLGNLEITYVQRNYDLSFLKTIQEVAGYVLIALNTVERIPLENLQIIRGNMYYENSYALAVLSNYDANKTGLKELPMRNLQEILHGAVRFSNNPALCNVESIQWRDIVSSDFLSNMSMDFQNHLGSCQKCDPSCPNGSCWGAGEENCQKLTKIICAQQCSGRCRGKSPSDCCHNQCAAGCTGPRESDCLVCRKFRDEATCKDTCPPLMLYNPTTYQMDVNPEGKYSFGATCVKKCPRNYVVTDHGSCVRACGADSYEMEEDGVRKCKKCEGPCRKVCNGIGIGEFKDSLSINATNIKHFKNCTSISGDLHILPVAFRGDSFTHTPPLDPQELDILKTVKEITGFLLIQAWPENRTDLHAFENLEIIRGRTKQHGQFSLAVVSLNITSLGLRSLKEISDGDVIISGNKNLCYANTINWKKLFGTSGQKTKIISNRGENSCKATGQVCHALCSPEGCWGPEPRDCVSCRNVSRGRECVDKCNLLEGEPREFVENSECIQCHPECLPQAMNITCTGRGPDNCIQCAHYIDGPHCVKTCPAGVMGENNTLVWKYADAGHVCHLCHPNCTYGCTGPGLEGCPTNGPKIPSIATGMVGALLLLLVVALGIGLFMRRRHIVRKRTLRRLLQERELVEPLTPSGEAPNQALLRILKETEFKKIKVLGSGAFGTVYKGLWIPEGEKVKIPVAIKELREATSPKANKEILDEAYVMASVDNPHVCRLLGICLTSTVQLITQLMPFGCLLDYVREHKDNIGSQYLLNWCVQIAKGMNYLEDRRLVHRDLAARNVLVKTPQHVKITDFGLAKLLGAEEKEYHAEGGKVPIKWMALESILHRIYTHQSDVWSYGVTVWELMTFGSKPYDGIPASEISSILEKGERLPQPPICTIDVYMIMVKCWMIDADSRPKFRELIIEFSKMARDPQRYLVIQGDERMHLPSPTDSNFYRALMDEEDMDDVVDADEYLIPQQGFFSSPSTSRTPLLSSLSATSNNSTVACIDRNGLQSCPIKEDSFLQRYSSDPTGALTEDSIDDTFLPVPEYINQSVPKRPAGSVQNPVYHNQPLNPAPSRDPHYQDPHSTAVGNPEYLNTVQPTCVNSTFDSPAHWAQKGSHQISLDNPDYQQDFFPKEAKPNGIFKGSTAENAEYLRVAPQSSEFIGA

On to `Cc1ncc([N+](=O)[O-])n1CC(=O)N/N=C/c1cc2ccccc2nc1Oc1ccccc1`, for which the IC50 – broadly, the concentration that inhibits the measured activity by half – in assay [1] stood at 9.45 µM; in assay [2], 13.3 µM.

`Cc1ccc(Oc2nc3ccccc3cc2/C=N/NC(=O)Cn2c([N+](=O)[O-])cnc2C)cc1`: the IC50 in assay [1] is 21.5 µM; in assay [2] it was 27.1 µM; in assay [3], 23.1 µM; in assay [4], 7.67 µM.

In the case of `COc1ccc(Oc2nc3ccccc3cc2/C=N/NC(=O)Cn2c([N+](=O)[O-])cnc2C)cc1`, the 50% inhibitory concentration (IC50) in assay [1] stood at 0.92 µM; in assay [2] it was 4.13 µM; in assay [3] it was 0.27 µM; in assay [4], 12 µM.

As to `Cc1ncc([N+](=O)[O-])n1CC(=O)N/N=C/c1cc2ccccc2nc1Oc1ccc(F)cc1`, the IC50 turned out to be 3.12 µM in assay [1], 0.18 µM in assay [2], 21 µM in assay [3] and 0.37 µM in assay [4].

For `Cc1ncc([N+](=O)[O-])n1CC(=O)N/N=C/c1cc2ccccc2nc1Oc1ccc(Cl)cc1`, the IC50 in assay [1] stood at 9.03 µM; in assay [2], 0.22 µM; in assay [3], 5.12 µM; in assay [4] it was 4.1 µM.

With `Cc1ccc2nc(Oc3ccccc3)c(/C=N/NC(=O)Cn3c([N+](=O)[O-])cnc3C)cc2c1`, the IC50 in assay [1] was 7.18 µM; in assay [2], 15.1 µM; in assay [3], 3.17 µM; in assay [4], 1.58 µM.

As to `Cc1ccc(Oc2nc3ccc(C)cc3cc2/C=N/NC(=O)Cn2c([N+](=O)[O-])cnc2C)cc1`, the IC50 worked out at 1.19 µM in assay [1], 21.9 µM in assay [2], 0.18 µM in assay [3] and 17 µM in assay [4].

`COc1ccc(Oc2nc3ccc(C)cc3cc2/C=N/NC(=O)Cn2c([N+](=O)[O-])cnc2C)cc1`: the IC50 was 0.16 µM in assay [1], 3.15 µM in assay [2], 0.12 µM in assay [3] and 2.18 µM in assay [4].

As for `Cc1ccc2nc(Oc3ccc(F)cc3)c(/C=N/NC(=O)Cn3c([N+](=O)[O-])cnc3C)cc2c1`, the IC50 in assay [1] turned out to be 0.19 µM; in assay [2] it was 1.56 µM; in assay [3] it was 0.42 µM; in assay [4] it was 0.43 µM.

Regarding `Cc1ccc2nc(Oc3ccc(Cl)cc3)c(/C=N/NC(=O)Cn3c([N+](=O)[O-])cnc3C)cc2c1`, the IC50 in assay [1] is 1.23 µM; in assay [2], 3.18 µM; in assay [3] it was 8.66 µM; in assay [4], 19 µM.

The values are drawn from ChEMBL document CHEMBL3232917, “Schiff's base derivatives bearing nitroimidazole and quinoline nuclei: new class of anticancer agents and potential EGFR tyrosine kinase inhibitors” (Bioorg Med Chem Lett, 2014).
